Here are results for five compounds from patent US6469023B1, “Heterocyclic spiro-derivative” (Daiichi Pharmaceutical Co., Ltd., priority 1995, dated 2002).

Assay in all cases: Antibacterial activity, standard method of Japan Society of Chemotherapy (MIC)
What all share (assay type): cell-based

One experiment deals with S. aureus, 87037. How it is done: (§1) The following Inventive and Reference Examples are provided to further illustrate the present invention, but not by way of limitation. The antibacterial activity of optically active compounds of interest was tested in accordance with the standard method designated by Japan Society of Chemotherapy. The results are shown in Table 1 as MIC (μg/ml). [drawing 10]

Another experiment deals with E. coli, NIHJ. How it is done: as §1
For experiment [1], the system named is Str. faeccalis, ATCC-19433. On the procedure:
as §1

The subject of a further experiment is Pr. mirabilis, IFO-3849. On the procedure: as §1
For a further experiment, the system named is Ser. marcescens, 10100. On the procedure: as §1
Another experiment deals with Str. pyogenes, G-36. How it is done:
as §1

For another experiment, the system named is S. aureus, 209P. How it is done: as §1
A further experiment relates to S. epidermidis, 56500. How it is done: as §1
The test system of another experiment is Ps. aeruginosa, 32121. How it is done:
as §1

The test system of experiment [2] is Ps. maltophilia, IID-1275. How it is done: as §1
The next experiment relates to S. flexneri, 2A 5503. On the procedure:
as §1

In the next experiment the test system is Ps. aeruginosa, 32104. On the procedure: as §1
For a further experiment, the system named is Pr. vulgaris, 08601. How it is done:
as §1

Where [3] appears, read: Staphylococcus aureus, 87037, S. aureus, read-out: MIC.
The mark [4] stands for this setting: Escherichia coli, read-out: MIC.
The mark [5] stands for this setting: Proteus mirabilis, IFO3849, Pr. mirabilis, read-out: MIC.
Where [6] appears, read: Serratia marcescens, read-out: MIC.
[7] abbreviates: Streptococcus pyogenes, G36, Str. pyogenes, read-out: MIC.
Where [8] appears, read: Staphylococcus aureus, read-out: MIC.
[9] abbreviates: Staphylococcus epidermidis, 56500, S. epidermidis, read-out: MIC.
Where [10] appears, read: Pseudomonas aeruginosa, read-out: MIC.
[11] abbreviates: Stenotrophomonas maltophilia, IID1275, Ps. maltophilia, read-out: MIC.
Where [12] appears, read: Shigella flexneri, 2A5503, read-out: MIC.
[13] abbreviates: Pseudomonas aeruginosa, 32104, Ps. aeruginosa, read-out: MIC.
[14] abbreviates: Proteus vulgaris, 08601, Pr. vulgaris, read-out: MIC.

Molecules are shown by their SMILES. Converted amounts (≈) assume the structure as drawn. Like-named read-outs stand apart in the source and are kept apart here.

Take `Nc1c(F)c(N2CCC3(CC3N)C2)c(F)c2c1c(=O)c(C(=O)O)cn2[C@@H]1C[C@@H]1F` (single isomer, unassigned) [Example 1]: the MIC was 0.05 µg/mL (≈ 0.122 µM) in the experiment with S. aureus, 87037 (setting [3]); no more than 0.003 µg/mL in the experiment on E. coli, NIHJ (setting [4]); 0.025 µg/mL (≈ 0.0612 µM) in experiment [1] (read-out: MIC); 0.013 µg/mL (≈ 0.0318 µM) in the experiment on Pr. mirabilis, IFO-3849 (setting [5]); 0.025 µg/mL (≈ 0.0612 µM) with Ser. marcescens, 10100 (setting [6]); 0.013 µg/mL (≈ 0.0318 µM) in the experiment with Str. pyogenes, G-36 (setting [7]). Besides, the MIC in the experiment with S. aureus, 209P (setting [8]) was no more than 0.003 µg/mL; in the experiment on S. epidermidis, 56500 (setting [9]), no more than 0.003 µg/mL; in the experiment with Ps. aeruginosa, 32121 (setting [10]) it was 0.025 µg/mL (≈ 0.0612 µM); in experiment [2] (setting [11]), 0.025 µg/mL (≈ 0.0612 µM); in the experiment with S. flexneri, 2A 5503 (setting [12]) it was no more than 0.003 µg/mL; with Ps. aeruginosa, 32104 (setting [13]), 0.025 µg/mL (≈ 0.0612 µM). For the same compound, the MIC against Pr. vulgaris, 08601 (Pr. vulgaris) turned out to be 0.006 µg/mL (≈ 0.0147 µM).
As to `Nc1c(F)c(N2CCC3(CC3N)C2)c(F)c2c1c(=O)c(C(=O)O)cn2[C@@H]1C[C@@H]1F` (single isomer, unassigned) [Example 4], the MIC in the experiment with S. aureus, 87037 (S. aureus) is 0.05 µg/mL (≈ 0.122 µM); against E. coli, NIHJ it was “≦0.003 μg/ml”; in experiment [1], 0.025 µg/mL (≈ 0.0612 µM); with Pr. mirabilis, IFO-3849 (Pr. mirabilis), 0.025 µg/mL (≈ 0.0612 µM); against Ser. marcescens, 10100, 0.025 µg/mL (≈ 0.0612 µM); in the experiment on Str. pyogenes, G-36 (Str. pyogenes) it was 0.013 µg/mL (≈ 0.0318 µM). The MIC result in the experiment on S. aureus, 209P was “≦0.003 μg/ml”; against S. epidermidis, 56500 (S. epidermidis), “≦0.003 μg/ml”; in the experiment on Ps. aeruginosa, 32121 it was 0.025 µg/mL (≈ 0.0612 µM); in experiment [2] (Ps. maltophilia), 0.025 µg/mL (≈ 0.0612 µM); against S. flexneri, 2A 5503 it was “≦0.003 μg/ml”; with Ps. aeruginosa, 32104 (Ps. aeruginosa), 0.05 µg/mL (≈ 0.122 µM). In the experiment on Pr. vulgaris, 08601 (Pr. vulgaris), the MIC is 0.013 µg/mL (≈ 0.0318 µM).
As to `Cc1c(N2CCC3(CC3N)C2)c(F)c(N)c2c(=O)c(C(=O)O)cn([C@@H]3C[C@@H]3F)c12` (single isomer, unassigned) [Example 5], the MIC was 0.1 µg/mL (≈ 0.247 µM) in the experiment with S. aureus, 87037 (setting [3]); no more than 0.003 µg/mL in the experiment on E. coli, NIHJ (setting [4]); 0.05 µg/mL (≈ 0.124 µM) in experiment [1] (read-out: MIC); 0.05 µg/mL (≈ 0.124 µM) in the experiment with Pr. mirabilis, IFO-3849 (setting [5]); 0.05 µg/mL (≈ 0.124 µM) with Ser. marcescens, 10100 (setting [6]); 0.05 µg/mL (≈ 0.124 µM) in the experiment with Str. pyogenes, G-36 (setting [7]). The MIC with S. aureus, 209P (setting [8]) is no more than 0.003 µg/mL; in the experiment on S. epidermidis, 56500 (setting [9]), 0.013 µg/mL (≈ 0.0321 µM); in the experiment with Ps. aeruginosa, 32121 (setting [10]) it was 0.025 µg/mL (≈ 0.0618 µM); in [2] (setting [11]), 0.05 µg/mL (≈ 0.124 µM); in the experiment with S. flexneri, 2A 5503 (setting [12]), no more than 0.003 µg/mL; in the experiment with Ps. aeruginosa, 32104 (setting [13]), 0.05 µg/mL (≈ 0.124 µM). In the experiment on Pr. vulgaris, 08601 (setting [14]), the MIC is 0.013 µg/mL (≈ 0.0321 µM).
In the case of `Cc1c(N2CCC3(CC3N)C2)c(F)cc2c(=O)c(C(=O)O)cn([C@@H]3C[C@@H]3F)c12` (single isomer, unassigned) [Example 6], the MIC with S. aureus, 87037 (S. aureus) was 0.10 µg/mL (≈ 0.257 µM); with E. coli, NIHJ (setting [4]), no more than 0.003 µg/mL; in experiment [1] (read-out: MIC), 0.05 µg/mL (≈ 0.128 µM); in the experiment on Pr. mirabilis, IFO-3849 (setting [5]), 0.013 µg/mL (≈ 0.0334 µM); with Ser. marcescens, 10100 (setting [6]) it was 0.025 µg/mL (≈ 0.0642 µM); with Str. pyogenes, G-36 (Str. pyogenes), 0.013 µg/mL (≈ 0.0334 µM). The minimum inhibitory concentration (MIC) in the experiment with S. aureus, 209P (setting [8]) is no more than 0.003 µg/mL; in the experiment on S. epidermidis, 56500 (S. epidermidis), 0.013 µg/mL (≈ 0.0334 µM); with Ps. aeruginosa, 32121 (setting [10]), 0.025 µg/mL (≈ 0.0642 µM); in experiment [2] (setting [11]) it was 0.05 µg/mL (≈ 0.128 µM); in the experiment on S. flexneri, 2A 5503 (setting [12]), no more than 0.003 µg/mL; with Ps. aeruginosa, 32104 (setting [13]), 0.05 µg/mL (≈ 0.128 µM). For the same compound, the MIC in the experiment with Pr. vulgaris, 08601 (setting [14]) was no more than 0.003 µg/mL.
`Cc1c(N2CCC3(CC3N)C2)c(F)cc2c(=O)c(C(=O)O)cn([C@@H]3C[C@@H]3F)c12` (single isomer, unassigned) [Example 7]: the minimum inhibitory concentration (MIC) in the experiment with S. aureus, 87037 (S. aureus) is 0.25 µg/mL (≈ 0.642 µM); in the experiment on E. coli, NIHJ, “≦0.003 μg/ml”; in [1] it was 0.025 µg/mL (≈ 0.0642 µM); in the experiment on Pr. mirabilis, IFO-3849 (Pr. mirabilis) it was 0.013 µg/mL (≈ 0.0334 µM); in the experiment on Ser. marcescens, 10100, 0.025 µg/mL (≈ 0.0642 µM); with Str. pyogenes, G-36 (Str. pyogenes) it was 0.006 µg/mL (≈ 0.0154 µM). In addition, the MIC result was “≦0.003 μg/ml” with S. aureus, 209P; 0.006 µg/mL (≈ 0.0154 µM) in the experiment on S. epidermidis, 56500 (S. epidermidis); 0.025 µg/mL (≈ 0.0642 µM) in the experiment on Ps. aeruginosa, 32121; 0.025 µg/mL (≈ 0.0642 µM) in experiment [2] (Ps. maltophilia); “≦0.003 μg/ml” against S. flexneri, 2A 5503; 0.05 µg/mL (≈ 0.128 µM) against Ps. aeruginosa, 32104 (Ps. aeruginosa). Moreover, the MIC result in the experiment with Pr. vulgaris, 08601 (Pr. vulgaris) is reported as “≦0.003 μg/ml”.
